Measurements: publication PMC4361473, “A New System for Profiling Drug-Induced Calcium Signal Perturbation in Human Embryonic Stem Cell–Derived Cardiomyocytes” (Journal of Biomolecular Screening, 2015)
Where two headings read alike, the source gives them in different places.

What was measured:
Cytiva hSCCMs [1] = assay: Whole-cell current-clamp recording of spontaneous action potentials (APD90); format: cell-based, human; settings: drug at EC20 concentration, 3 min; Fridericia-corrected; blebbistatin-immobilized cells
Procedure: Cells in 35-mm glass-bottomed culture dishes containing a superfusion insert (AutoMate PCP-1; Digitimer Ltd., Welwyn Garden City, UK) were mounted on the stage of an inverted microscope (CKX-41; Olympus, Tokyo, Japan) and were superfused with normal Tyrode (NT) solution (containing [in mM] NaCl, KCl, MgCl2 [1], CaCl2 [2], HEPES [10], glucose; pH 7.4 with NaOH) or NT-containing drugs maintained at 37 °C using a heated jacket.
Cells were whole-cell clamped with 3- to 4-MΩ patches and an intrapipette solution (containing in [mM] KCl, MgCl2 [1.75], CaCl2 [5.37], EGTA [10], HEPES [10], and Na2ATP [4]; pH 7.2 with KOH) in current-clamp (IC) mode using a CV-7B headstage and MultiClamp 700B amplifier controlled by MultiClamp software (Molecular Devices, Sunnyvale, CA). Data were digitized and acquired using a Digidata 1322a card and pClamp software, respectively (Molecular Devices). Action potentials were sampled at a rate of 20 kHz and low pass (Bessel) filtered at 10 kHz.
Spontaneous cell contracture was terminated using blebbistatin (5 µM, 10 min), an agent that inhibits myofilament shortening and thereby negates patch-clamp recording instability but preserves normal Ca^2+ cycling.[20] […] Action potential (AP) recordings from blebbistatin-immobilized cells were taken under control (no-drug) conditions (1 min) and following the switch to drug-containing NT. APD90, corrected for AP cycle length using Fridericia’s method (APD90(corr) = APD90/cycle length^[…]), was calculated from five consecutive APs following a 3-min exposure of the cells to drug.
Figure 4. Investigating the effect of cardiovascular-active drugs on Cytiva APD90. (A) Cells were exposed to drugs at EC20 concentrations for 3 min (Suppl. Table S2). APD90 values were corrected for beat period using Fridericia’s algorithm. Data points represent individual paired experiments (n = 6). Representative control (gray) and drug-treated (black) action potential traces are shown. (B) APD90 plotted as the percentage change relative to the paired control value (no drug). *p < 0.05. **p < 0.01.

[2] = Effective therapeutic plasma concentration (ETPC, ETPCunbound); format: in vivo, human; settings: free plasma concentration calculated from ETPC and free drug %, Supplementary Table 1
Excerpt: There is also the issue regarding the relevance of drug potency determined in vitro to clinical dosing in humans. Guo and colleagues[25],[27] used an impedance-derived index of arrhythmic beating in hSCCMs to derive a predicted proarrhythmic score (PPS) that took into account the therapeutically relevant total concentration of drug in human plasma (defined as Ceff). More recently, Clements and Thomas[13] used a similar approach to generate a predictive risk score (PRS) based on their measurement of field potential duration (FPD) in Cytiva.
Supplementary Table 1. Calculating the free plasma concentration of […]
described by Redfern et al. (Redfern et al. (2003) Cardiovasc. Res. 58:32-45) was used to calculate the levels of free drug (ETPCunbound). ETPC for nadolol and valdecoxib were from Krukemyer et al. (Pharm. Res. (1990) 9:953-956) and Yuan et al. (Drug Metab. Disp. (2002) 30:1013-1021), respectively. The values for drug-protein binding were obtained from DrugBank (www.drugbank.ca).

Cytiva hSCCMs [3] = assay: SALVO profiling of drug-evoked Ca2+ signal perturbation (fluo-4 confocal imaging); settings: for EC20 AHI: 20% change from control in amplitude heterogeneity index; for EC20 AHI / EC20 Synch / EC20 ITN / EC20 THI / EC20 Rate: regression of Figure 3 data; for EC20 Synch: 20% change from control in intercellular synchronization; for EC20 ITN: 20% change from control in intertransient noise; for EC20 THI: 20% change from control in temporal heterogeneity index; for EC20 Rate: drug concentration producing a 20% change from control (no drug) in Ca2+ oscillation rate; for SALVO toxicity score, rank order of the extent of Ca2+ perturbation: five-parameter SALVO output integrated over 0.1-1000 nM, normalized to control; for Effect on Ca2+ handling (SALVO parameters): concentrations up to 30 µM
Excerpt: Cytiva hSCCMs were derived from monolayer differentiation of an H7 hESC cell line that had been expanded under feeder-free conditions and then subjected to a proprietary differentiation protocol (GE Healthcare, Piscataway, NJ, USA).[13] […] Cells were thawed and seeded into 7-mm^2 chambers created by the adherence of silicon gaskets (CultureWell MultiWell 3 mm in diameter, 1-mm-depth inserts [Life Technologies]) on glass-bottomed culture chambers (In Vitro Scientific, Sunnyvale, CA, USA) that had been precoated with Matrigel (BD Biosciences, Franklin Lakes, NJ, USA), Franklin Lakes, NJ, USA diluted 1:30 (v/v) in Knockout DMEM (Life Technologies, Carlsbad, CA, USA). […] Cells were allowed to adhere to the coverslip for 2 h before the dish was filled with RPMI/B27 (2 mL). Medium was exchanged every 48 h.
Cells were incubated with fluo-4 AM (5 µM) (Life Technologies) for 1 h at 37°C before coverslips were flooded with RPMI/B27 (2 mL). […] Cells were maintained at 37 °C throughout experiments. […] The application of caffeine (5 mM final concentration) was used to trigger sarcoplasmic reticulum (SR) Ca^2+ release and thereby estimate the intra-SR Ca^2+ store load.
Taking our lead from Uhlen’s method of using spectral analysis to investigate the organization of Ca^2+ signals,[14] we developed SALVO to decode the spatiotemporal patterning of Ca^2+ oscillations within individual cells and across multicellular populations. SALVO outputs 30 parameters that describe Ca^2+ signal organization,[15] but for the purposes of this study, we focused on five parameters: oscillation rate (rate, Hz) and four other parameters that quantify the amplitude and temporal patterning of Ca^2+ oscillation: (1) amplitude heterogeneity index (AHI) and (2) temporal heterogeneity index (THI), statistical assessments of signal amplitude and temporal variability within single cells, respectively; (3) intertransient noise (ITN), defined as the Ca^2+ signal variability occurring between Ca^2+ oscillations and that extends the use of signal variability (SV) to measure point-by-point differences in very low-amplitude Ca^2+ signals[6],[10],[12]; and (4) synchronization, an index of the temporal coincidence of Ca^2+ oscillation maxima occurring across cells in the population. The calculation of these parameters is described in Supplementary Figure S1. SALVO is implemented using a Python-based computer program.[15] The detection of signal maxima and minima over a 30-s period in data obtained from 6 to 20 cells in each instance was performed using SALVO’s autodetection algorithms (based on spline detect or threshold detection methods) or by manual assignation of the start, peak, and end of each Ca^2+ spike. SALVO outputs were archived and interrogated using a custom-built SQL-based database system (DB Miner, CHG, NCS, SBJ).
Baseline assessments of Ca^2+ signals in fluo-4–loaded cells prior to the addition of drug (control) were established as described above.
After each addition and following a period of equilibration (approximately 90 s), fluo-4–dependent Ca^2+ signals were acquired for 30 s. Using this protocol, the same population of cells was imaged throughout the entire drug addition sequence.
In all experiments, operators were blinded to the identities of the drugs under test throughout all phases of postexperimental data analysis.
Supplementary Table 2. EC20 values for Ca2+ perturbation.
Drug concentrations (nM) that produced a 20% change from control values (no drug) were calculated for each SALVO parameter from regression analysis of […]
The effective therapeutic plasma concentration of free drug (ETPCunbound, nM) was calculated in Supplementary Table 1.
Calculate percentage effect size (E) for each SALVO parameter, normalized to Ew = E x λ control conditions, at each drug concentration Effect size (E,%) λ
Cumulative Ew for drug concentrations of 0.1, 1, 10, 100 and 1000 nM for The relationship between E and λ is given by […]

[4] = cited from earlier work; for TdP risk category: categories assigned by Redfern and colleagues
[5] = maximal effective therapeutic plasma concentration, cited from earlier work
[6] = design: method as in DrugBank (www.drugbank.ca); settings: from drug-protein binding values; ref DrugBank (www.drugbank.ca); cited from earlier work
[7] = spontaneously oscillating Cytiva

For `O=C(NCC1CCCCN1)c1cc(OCC(F)(F)F)ccc1OCC(F)(F)F` (centres unmarked) [Flecainide, flecainide], the “Effect on APD90 (action potential duration)” value (Cytiva hSCCMs [1]) was “no effect”, the ETPCunbound [2] was 1159 nM and the “EC20 AHI” value (Cytiva hSCCMs [3]) was 0.26 µM. The “EC20 Synch” value (Cytiva hSCCMs [3]) was > 30 µM, the “EC20 ITN” value (Cytiva hSCCMs [3]) was 2.11 µM and the “EC20 THI” value (Cytiva hSCCMs [3]) was 0.285 µM. For the same compound, the “Predicted proarrhythmic score (PPS)” value (Cytiva hSCCMs [3]; PPS = ETPCunbound/EC20) was “elevated PPS”, the “EC20 Rate” value (Cytiva hSCCMs [3]) was 0.215 µM and the “SALVO toxicity score, rank order of the extent of Ca2+ perturbation” value (“SALVO toxicity score, rank order” for short) (Cytiva hSCCMs [3]) was “astemizole > thioridazine > cisapride > flecainide > valdecoxib > sotalol > nadolol”. For the same compound, the “Effect on Ca2+ handling (SALVO parameters)” value (shortened to “Effect on Ca2+ handling”) (Cytiva hSCCMs [3]; [7]) was “large effect sizes in multiple parameters”.

In the case of `CC(C)(C)NCC(O)COc1cccc2c1CC(O)C(O)C2` (centres unmarked) [Nadolol, nadolol], the TdP risk category [4] is listed as “category 5”, the ETPCunbound [2] is listed as 271 nM and the “EC20 AHI” value (Cytiva hSCCMs [3]) is listed as > 30 µM. For the same compound, the “EC20 Synch” value (Cytiva hSCCMs [3]) was > 30 µM, the “EC20 ITN” value (Cytiva hSCCMs [3]) was > 30 µM and the “EC20 THI” value (Cytiva hSCCMs [3]) was > 30 µM. For the same compound, the “EC20 Rate” value (Cytiva hSCCMs [3]) was > 30 µM, the “SALVO toxicity score, rank order” value (Cytiva hSCCMs [3]) was “astemizole > thioridazine > cisapride > flecainide > valdecoxib > sotalol > nadolol” and the “Effect on Ca2+ handling” value (Cytiva hSCCMs [3]; [7]) was “no measurable effect”. For the same compound, the ETPC ([5]; ref Krukemyer et al. (Pharm. Res. (1990) 9:953-956)) was 0.387 µM and the Free drug [6] was 70%.

In the case of `COc1ccccc1OCC(O)CN1CCN(CC(=O)Nc2c(C)cccc2C)CC1` (centres unmarked) [Ranolazine, ranolazine], the “Effect on intercellular synchronization” value (Cytiva hSCCMs [3]; [7]) is reported as “reduced intercellular synchronization” and the “Effect on Ca2+ handling” value (Cytiva hSCCMs [3]; [7]) is reported as “unchanged Ca^2+ cycling”.

In the case of `CC(C)NCC(O)c1ccc(NS(C)(=O)=O)cc1` (centres unmarked) [Sotalol, sotalol], the “Therapeutic plasma concentration with QT-prolonging effects” value ([4]; reported, no reference given) is listed as “exceeding 10 µM”, the ETPCunbound [2] is listed as 14733 nM and the ETPCunbound ([2]; listed as sotalol) is listed as 14,733 nM. The “EC20 AHI” value (Cytiva hSCCMs [3]) was 0.21 µM, the “EC20 Synch” value (Cytiva hSCCMs [3]) was > 30 µM and the “EC20 ITN” value (Cytiva hSCCMs [3]) was > 30 µM. The “EC20 THI” value (Cytiva hSCCMs [3]) was > 30 µM, the “Predicted proarrhythmic score (PPS)” value (Cytiva hSCCMs [3]; PPS = ETPCunbound/EC20) was ~ 15 and the “EC20 Rate” value (Cytiva hSCCMs [3]) was > 30 µM. For the same compound, the “SALVO toxicity score, rank order” value (Cytiva hSCCMs [3]) was “astemizole > thioridazine > cisapride > flecainide > valdecoxib > sotalol > nadolol”, the “Concentration causing an isolated change in AHI” value (Cytiva hSCCMs [3]; [7]) was > 1 µM and the “Effect on intercellular synchronization” value (Cytiva hSCCMs [3]; [7]) was “did not reduce the extent of intercellular synchronization”. The ETPC ([5]; ref Redfern et al. (2003) Cardiovasc. Res. 58:32-45) was 14.733 µM.

With `CSc1ccc2c(c1)N(CCC1CCCCN1C)c1ccccc1S2` (centres unmarked) [Thioridazine, thioridazine] the “Effect on APD90 (action potential duration)” value (Cytiva hSCCMs [1]) was “increased APD90”, the ETPCunbound [2] was 89 nM and the “EC20 AHI” value (Cytiva hSCCMs [3]) was 0.205 µM. For the same compound, the “EC20 Synch” value (Cytiva hSCCMs [3]) was 0.12 µM, the “EC20 ITN” value (Cytiva hSCCMs [3]) was 0.11 µM and the “EC20 THI” value (Cytiva hSCCMs [3]) was 0.53 µM. For the same compound, the PPS rank order (Cytiva hSCCMs [3]; PPS = ETPCunbound/EC20) was “thioridazine > cisapride > valdecoxib”, the “EC20 Rate” value (Cytiva hSCCMs [3]) was 1.12 µM and the “SALVO toxicity score, rank order” value (Cytiva hSCCMs [3]) was “astemizole > thioridazine > cisapride > flecainide > valdecoxib > sotalol > nadolol”. For the same compound, the “Effect on Ca2+ handling” value (Cytiva hSCCMs [3]; [7]) was “large effect sizes in multiple parameters”.

With `COc1ccc(CCN(C)CCCC(C#N)(c2ccc(OC)c(OC)c2)C(C)C)cc1OC` (centres unmarked) [Verapamil, verapamil] the “Concentration reducing the rate of Ca2+ oscillation” value (Cytiva hSCCMs [3]; [7]) was > 10 µM and the “Effect on Ca2+ handling” value (Cytiva hSCCMs [3]; [7]) was “no measurable effect”.

In the case of `CCCCc1oc2ccccc2c1C(=O)c1cc(I)c(OCCN(CC)CC)c(I)c1` [amiodarone], the TdP risk category [4] is listed as “category 1”.

In the case of `CC(CC(c1ccccc1)c1ccccc1)NC(C)(C)C` (centres unmarked) [terodiline], the TdP risk category [4] is given as “category 2”.
